Here are results for 20 molecules from US8598383B2, “Pharmaceutical composition for treating or preventing degenerative and inflammatory diseases” (Neurotech Pharmaceuticals Co., Ltd., priority 2006, dated 2013).

Series [1] relates to BV2 microglia cell line. Nature of the series: Suppressing effect on production of NO (LPS, Griess reagent). Format: cell-based. To be noted: Mus musculus, BV-2, LPS-treated BV2 microglia, 24 hours incubation. As to the method: Inhibiting effect of the 2-hydroxybenzoic acid derivative according to the present invention on NO, inflammatory factor intervening inflammation reaction was evaluated. BV2 microglia cell line was treated with lipopolysaccharide (LPS), a inflammation-inducing material of bacteria toxin, with inclusion of 10 uM, 30 uM or 100 uM of the present compound. After 24 hours of incubation, 50 ul of culture medium was collected in 96-well plate. Then, 50 ul of Griess reagent was added and incubated for 10 minutes at room temperature. The absorbance was evaluated by ELISA reader at 540 nm.
Background: Nitrite, measured by Griess reagent, commonly stands in for NO production.

The test system of series [2] is TNF-α production in BV2 cell line. Nature of the series: Suppressing effect on production of cytokine (ELISA), TNF-α. To be noted: LPS + 100 uM of sample, 24 hours; for inhibition at 100 µM: Mus musculus, BV-2, level in medium; for TNF-α % Inhibition: level in medium, 100 µM. Type of series: cell-based. On the procedure: (§1) Effects of the 2-hydroxybenzoic acid derivatives on production of cytokine in BV2 cell line were evaluated. 24-well plate was inoculated with 1×10^6 cells of BV2 cell line, and treated with both LPS, inflammation-inducing material, and 100 uM of sample (the 2-hydroxybenzoic acid derivative or comparative drug), together. After 24 hours of incubation, culture medium was collected. The levels of cytokines, TNF-α and IL-6, in the medium were evaluated by ELISA method.
(In general: An ELISA detects its analyte on a solid surface through an enzyme-linked reagent.)

Series [3] in a line: Single-dose toxicity test. Type of series: in vivo. As to the method: FIG. 32 is results of single dose toxicity testing of some 2-hydroxybenzoic acid derivatives according to the present invention.
Single-dose toxicities of the 2-hydroxybenzoic acid derivatives were evaluated.

Series [4] deals with IL-6 production in BV2 cell line. Put plainly: Suppressing effect on production of cytokine (ELISA), IL-6. Particulars: LPS + 100 uM of sample, 24 hours; for inhibition at 100 µM: Mus musculus, BV-2, level in medium; for IL-6 % Inhibition: level in medium. Type of series: cell-based. On the procedure: as §1
The subject of series [5] is TNF-alpha gene expression in BV2 cell line. Put plainly: Suppressing effect on gene expression (RT-PCR), TNF-alpha. Format: cell-based. Particulars: gene expression vs LPS control, BV2, 24 hours; for inhibition at 100 µM: Mus musculus, BV-2, 24 h. As to the method:
(§2) Effects of the 2-hydroxybenzoic acid derivatives on iNOS gene expression in BV2 cell line were evaluated. 100 mm dish was inoculated with 1×10^6 cells of BV2 cell line, and treated with both LPS, inflammation-inducing material, and 1˜100 uM of the 2-hydroxybenzoic acid derivative of the present invention, together, in regular concentration interval. After 24 hours of incubation, RNA was extracted. Extracted RNA was used in reverse transcription and polymerase chain reaction, and expression patterns of TNF-alpha, IL-1beta and iNOS were compared.

For series [6], the system named is collagen-induced arthritis. Put plainly: Collagen-induced arthritis model (arthritic index). Type of series: in vivo, mouse. As to the method:
FIG. 15 is results showing efficacy through arthritis animal model induced by collagen. 25 mg/kg of compound 2, 3 or 18, or methotrexate (control, MTX, 1 mg/kg/week) was intraperitoneally injected after administration of collagen.
FIG. 16 is results showing efficacy of compounds 6 and 11 through arthritis animal model induced by collagen. Collagen was intradermally injected two times with 2 week-interval. One week later, compound 6, compound 11 and methotrexate (control) were intraperitoneally injected. Then, the animals were observed everyday for 2-3 weeks, and results was evaluated by arthritis index.
To evaluate the efficacy of the 2-hydroxybenzoic acid derivative, collagen-induced arthritis model (rheumarthritis animal model) was used. Bovine type II collagen was mixed with complete Freund's adjuvant to make an emulsion, and the emulsion was intradermally injected into the origin site of 8˜10 week-old DBA/1LacJ mouse tail. Intradermal boosting was performed by the same method 2 weeks later. 25 mg/kg/day of compounds 2, 3 and 18, 1 mg/kg/week of methotrexate (comparative example) or 10% vehicle (control) were intraperitoneally injected one week after the second intradermal injection of collagen (FIG. 15). Pictures of foot edema of normal rat (sham), collagen-administered rat (collagen) and compound 18-administered rat (compound 18, 25 mg/kg/day injection) were shown in FIG. 14.
In addition, 50 mg/kg/day of compounds 6 and 11, and 5 mg/kg/2 days of methotrexate (comparative example) were intraperitoneally injected. Phosphate buffered saline was injected as control (FIG. 16). For 2˜3 weeks, the degree of arthritis was observed everyday, and the result was evaluated according to the below arthritic index using edema.
4 paws were evaluated as from 0 to 4 point, Total points: 16

For series [7], the system named is IL-1beta gene expression in BV2 cell line. Put plainly: Suppressing effect on gene expression (RT-PCR), IL-1beta. Type of series: cell-based. Particulars: Mus musculus, BV-2, 24 h, gene expression vs LPS control, BV2, 24 hours. On the procedure:
as §2

In series [8] the test system is iNOS gene expression in BV2 cell line. Nature of the series: Suppressing effect on gene expression (RT-PCR), iNOS. Type of series: cell-based. Particulars: Mus musculus, BV-2, 24 h, gene expression vs LPS control, BV2, 24 hours. As to the method:
as §2

Series [9] has as its system MPO (myeloperoxidase). Particulars: cited from earlier work; for activity of MPO: in vivo.
In series [10] the test system is DSS-induced colitis. Put plainly: 5% dextran sulfate sodium (DSS) inflammatory intestinal disease model. Format: in vivo, mouse. To be noted: vs DSS only; compound 18 25 mg/kg oral. As to the method:
FIG. 17 is results showing efficacy through 5% dextran sulfate sodium (DSS) model, inflammatory intestinal disease animal model. After treatment of DSS, 10, 25 or 50 mg/kg of compound 18 suspended in 10% vehicle was orally administered. Sham means colon of normal mouse, DSS means colon mouse treated with 5% DSS. The others are pictures of colon of mice administered with compound 18 at indicated dose.
FIG. 20 is an efficacy test result of compound 18 using DSS. After treatment of DSS, compound 18 (25 mg/kg) suspended in 10% vehicle was orally administered. After that, bloody excrement by colon injury, diarrhea and the degree of dirtiness were evaluated as feces score.
5% dextran sulfate sodium (DSS) model was used as inflammatory intestinal disease animal model. 5% DSS mixed with water was orally administered. 5% DSS model causes damage to epithelial cell, and ulcer in left colon and the decrease of colon length are mainly observed in the model. This model is simple and reproductive, and can regulate the degree of inflammation according to dose. Therefore, this model is often used for evaluating drug candidates.
DSS is continuously administered in water bottle. The 2-hydroxybenzoic acid derivative was suspended in 10% vehicle, and orally administered.

The term IC50 denotes the concentration that inhibits the measured activity by half. Lower therefore signals greater potency. As usually defined, the inhibition is the share of the control response that was lost under treatment. One may read the LD50 as the dose expected to kill half of the subjects tested. Read a high LD50 as lower toxicity.

Where only a bound is given, the exact number is not on record here.

In turn, `O=C(O)c1cc(NCCc2cc(C(F)(F)F)cc(C(F)(F)F)c2)ccc1O` [compound 4, 5-[2-(3,5-bis-trifluoromethyl-phenyl)-ethylamino]-2-hydroxy-benzoic acid] registered an IC50 in series [1] of 6.25 µM. In addition, the inhibition at 100 µM in [2] is 18.7%. Also, the “single-dose toxicity, finding in words” value in [3] (mouse, in vivo) was “caused sudden death of mouse at 3 g/kg”.

Take `CC(=O)Oc1ccccc1C(=O)O` [Aspirin, acetylsalicylic acid, reference compound]: the “TNF-α % Inhibition” value in series [2] is “No effect”. The “TNF-α % Inhibition” value in series [2] (listed as aspirin) was “did not showing reducing effect”. In [4], the inhibition at 100 µM was found to be 22.2% and the “IL-6 % Inhibition” value is reported as “little reduced”.

`Cc1ccc(CCCNc2ccc(O)c(C(=O)O)c2)cc1` [compound 17, 2-hydroxy-5-(3-p-tolyl-propylamino)-benzoic acid] came in with an inhibition at 100 µM in series [5] of 20.8%.

In turn, `O=C(O)c1cc(NCCc2ccccc2)ccc1O` [compound 1, 2-hydroxy-5-phenethylamino-benzoic acid] gave an IC50 in [1] of 183 µM.

Take `COc1ccc(CCNc2ccc(O)c(C(=O)O)c2)cc1` [compound 11, 2-hydroxy-5-[2-(4-methoxy-phenyl)-ethylamino]-benzoic acid]: in [1], the IC50 came out at 132 µM. Besides, the arthritic index entry in series [6] (50 mg/kg/day intraperitoneal) is given as “apparent reducing effect”.

In the case of `Cc1ccccc1CCNc1ccc(O)c(C(=O)O)c1` [compound 12, 2-hydroxy-5-(2-o-tolyl-ethylamino)-benzoic acid], the inhibition at 100 µM in [7] was 41.8%; in series [8] it was 43.7%.

With `CC(c1cc2ccccc2s1)N(O)C(N)=O` (stereo not shown) [Zileuton], in [9], the “activity of MPO” value was “decreased the activity of MPO”.

In the case of `O=C(O)c1cc(NCCc2ccc(Cl)c(Cl)c2)ccc1O` [compound 8, 5-[2-(3,4-dichloro-phenyl)-ethylamino]-2-hydroxy-benzoic acid], the inhibition at 100 µM in [5] is 77%; in [7], greater than 50%. Further, the “% Inhibition (in 100 uM) TNF-alpha” value in series [5] stood at 77.1%.

In the case of `O=C(O)c1cc(NCCc2ccccc2[N+](=O)[O-])ccc1O` [compound 5, 2-hydroxy-5-[2-(2-nitro-phenyl)-ethylamino]-benzoic acid], the inhibition at 100 µM worked out at 38.7% in series [5] and 67.7% in series [7].

On to `O=C(O)c1cc(NCCc2ccccc2Cl)ccc1O` [compound 19, 5-[2-(2-chloro-phenyl)-ethylamino]-2-hydroxy-benzoic acid], for which the LD50 in series [3] (mouse, in vivo, single dose) fell in the range of 500 to 1000 mg/kg.

Turning to `O=C(O)c1cc(NCCCc2ccc(F)cc2)ccc1O` [compound 15, 5-[3-(4-fluoro-phenyl)-propylamino]-2-hydroxy-benzoic acid], the values for the inhibition at 100 µM in series [5] and in series [7] were 37.4% and 35.1%, respectively.

For `O=C(O)c1cc(NCCCc2ccccc2)ccc1O` [compound 13, 2-hydroxy-5-(3-phenyl-propylamino)-benzoic acid], the figures for the inhibition at 100 µM in [5] and in series [8] were 43% and 15.5%, respectively.

Regarding `O=C(O)c1cc(/N=N/c2ccc(S(=O)(=O)Nc3ccccn3)cc2)ccc1O` [sulfasalazine, reference compound], the “feces score (bloody excrement, diarrhea, dirtiness)” value in [10] is listed as “significantly decreased feces score”. Besides, the “activity of MPO” value in series [9] was “decreased the activity of MPO”.

For the molecule `O=C(O)c1cc(NCCc2cccc(C(F)(F)F)c2)ccc1O` [compound 3, 2-hydroxy-5-[2-(3-trifluoromethyl-phenyl)-ethylamino]-benzoic acid], the inhibition at 100 µM in [2] came out at 31.9%; in series [4], 33.1%. Moreover, in [3] (single dose), the “single-dose toxicity, finding in words” value was “high toxicity or dose-independent toxicity”. The arthritic index result in [6] (25 mg/kg/day intraperitoneal) was “apparent reducing effect”.

On to `CC(C)Cc1ccc(C(C)C(=O)O)cc1` (stereo not shown) [Ibuprofen, reference compound], for which the figures for the “TNF-α % Inhibition” value in [2] and in series [2] (listed as ibuprofen) were “No effect” and “did not showing reducing effect”, respectively. Moreover, the “IL-6 % Inhibition” value in series [4] (100 µM) is on record as “No effect”; in series [4] (listed as ibuprofen, 100 µM), “little reduced”.

Consider `O=C(O)c1cc(NCCc2ccc(F)cc2C(F)(F)F)ccc1O` [compound 9, 5-[2-(4-fluoro-2-trifluoromethyl-phenyl)-ethylamino]-2-hydroxy-benzoic acid], for which, in series [1], the IC50 was determined as 1.79 µM. Besides, in series [5], the inhibition at 100 µM was 61.7% and the “% Inhibition (in 100 uM) TNF-alpha” value came out at 61.7%. For the same molecule, testing at 100 µM in series [8] gave an inhibition of 17.8%.

`O=C(O)c1cc(NCCc2ccc(C(F)(F)F)cc2F)ccc1O` [compound 10, 5-[2-(2-fluoro-4-trifluoromethyl-phenyl)-ethylamino]-2-hydroxy-benzoic acid] gave an IC50 in series [1] of 20.7 µM.

As for `CS(=O)(=O)Nc1ccc([N+](=O)[O-])cc1Oc1ccccc1` [nimesulide], in series [9] (acetic acid-induced IBD and LTB4-induced IBD), the “protective effect in intestinal damage animal models” value is “showed protective effect”. The “activity of MPO” value in series [9] is recorded as “excessively suppressed the activity of MPO”.

Regarding `O=C(O)c1cc(NCCCc2ccc(C(F)(F)F)cc2)ccc1O` [compound 14, 2-hydroxy-5-[3-(4-trifluoromethyl-phenyl)-propylamino]-benzoic acid], the inhibition at 100 µM in series [5] came to 38.9%; in series [8] it was 44.3%; in [2] it was 62.6%. Also, the “single-dose toxicity, finding in words” value in series [3] (single dose) is given as “high toxicity or dose-independent toxicity”.

As to `O=C(O)c1cc(NCCc2ccc(Cl)cc2)ccc1O` [compound 6, 5-[2-(4-chloro-phenyl)-ethylamino]-2-hydroxy-benzoic acid], the arthritic index result in [6] (50 mg/kg/day intraperitoneal) was “apparent reducing effect”.
